Measured values from patent publication US20100022509A1, “Inhibitors of MshC and Homologs Thereof, and Methods of Identifying Same” (priority 2006, published 2010).
Where two headings read alike, the source gives them in different places.

Molecular target: T1, MshC (Mycobacterium tuberculosis, UniProt P9WJM9)
T1 sequence (P9WJM9 1-414): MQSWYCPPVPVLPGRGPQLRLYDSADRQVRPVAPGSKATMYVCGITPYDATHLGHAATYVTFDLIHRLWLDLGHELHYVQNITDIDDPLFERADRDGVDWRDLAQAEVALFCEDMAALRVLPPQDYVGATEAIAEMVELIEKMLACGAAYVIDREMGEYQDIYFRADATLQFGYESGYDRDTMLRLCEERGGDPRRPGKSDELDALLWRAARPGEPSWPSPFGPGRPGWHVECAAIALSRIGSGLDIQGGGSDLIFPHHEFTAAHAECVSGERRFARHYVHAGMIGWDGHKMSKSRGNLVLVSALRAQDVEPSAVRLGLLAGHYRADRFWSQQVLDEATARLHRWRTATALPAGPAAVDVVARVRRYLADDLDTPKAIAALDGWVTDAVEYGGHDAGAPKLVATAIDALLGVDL
Test: biochemical
Assay type: biochemical, M. tuberculosis

SMILES	IC50 (IC50)	inhibition of MshC in words, 1,3-diaminopropyl residue with remote amino residue capable of protonation	inhibition of MshC in words, compounds grouped by X (X=S, X=SO, X=SO2)	further results
O=C(NCCCN1CCOCC1)c1ccc2c(c1)N(Cc1cccc(Cl)c1)C(=O)c1ccccc1S2(=O)=O [Inhibitor 83-82]	~3000 µM	–	–	–
CCCCN(CCCNC(=O)c1ccc2c(c1)N(Cc1cccc(Cl)c1)C(=O)c1ccccc1[S+]2[O-])Cc1ccccc1 (centres unmarked) [Inhibitor 83-76]	≥ 3000 µM	–	–	–
CCCCN(CCCNC(=O)c1ccc2c(c1)N(Cc1cccc(Cl)c1)C(=O)c1ccccc1[S+]2[O-])Cc1ccccc1 (centres unmarked) [Inhibitor 1940]	–	–	–	inhibition of MshC in words, compounds lacking the basic amino group or with groups in excess of 10 carbons on the remote amino residue: little or no inhibition; IC50 (IC50, μM): > 3000 µM
O=C(NCCCSC1CCCCC1)c1ccc2c(c1)N(Cc1ccccc1)C(=O)c1ccccc1S2(=O)=O [Inhibitor 83-55]	> 3000 µM	–	–	inhibition of MshC in words, compounds lacking the basic amino group or with groups in excess of 10 carbons on the remote amino residue: little or no inhibition
Cc1ccc(C)c(CN2C(=O)c3ccccc3S(=O)(=O)c3ccc(C(=O)NCCCN4CCCCCC4)cc32)c1 [Inhibitor 83-44]	> 500 µM	measurable inhibition	–	–
Cc1ccc(C)c(CN2C(=O)c3ccccc3[S+]([O-])c3ccc(C(=O)NCCCSC4CCCCC4)cc32)c1 (centres unmarked) [Inhibitor 83-09]	> 3000 µM	–	–	–
CC1CC(C)CN(CCCNC(=O)c2ccc3c(c2)N(Cc2cccc(Cl)c2)C(=O)c2ccccc2[S+]3[O-])C1 (centres unmarked) [Inhibitor 83-65]	–	measurable inhibition	Significant inhibition	inhibition of MshC in words, Z is a benzyl moiety bearing one or more halogens: Measurable inhibition
Cc1ccc(C)c(CN2C(=O)c3ccccc3S(=O)(=O)c3ccc(C(=O)NCCCN(C)C4CCCCC4)cc32)c1 [Inhibitor 83-46]	≥ 500 µM	–	–	–
CCN(CC)CCCNC(=O)c1ccc2c(c1)N(Cc1cc(C)ccc1C)C(=O)c1ccccc1[S+]2[O-] (centres unmarked) [Inhibitor 83-06]	> 3000 µM	–	–	–
O=C(NCCCN1CCCC1)c1ccc2c(c1)N(Cc1cccc(Cl)c1)C(=O)c1ccccc1[S+]2[O-] (centres unmarked) [Inhibitor 83-72]	97 ± 26 µM	measurable inhibition	Significant inhibition	inhibition of MshC in words, Z is a benzyl moiety bearing one or more halogens: Measurable inhibition
CCCN(CCC)CCCNC(=O)c1ccc2c(c1)N(Cc1cccc(Cl)c1)C(=O)c1ccccc1S2(=O)=O [Inhibitor 83-83]	980 ± 40 µM	measurable inhibition	Significant inhibition	inhibition of MshC in words, Z is a benzyl moiety bearing one or more halogens: Measurable inhibition
Cc1ccc(C)c(CN2C(=O)c3ccccc3[S+]([O-])c3ccc(C(=O)NCCCN4CCCC4)cc32)c1 (centres unmarked) [Inhibitor 1061]	–	measurable inhibition	Significant inhibition	inhibition of MshC in words, Z benzyl moiety with methyl groups in the 2,5 positions or unsubstituted: Weak but detectable inhibition; IC50 (IC50, μM): 1600 ± 300 µM
CN(CCCNC(=O)c1ccc2c(c1)N(Cc1cccc(Cl)c1)C(=O)c1ccccc1[S+]2[O-])C1CCCCC1 (centres unmarked) [NTF1836]	–	–	–	IC50 (50, 100 and 200 μM in 0.005% Triton X-100, reciprocal plot of velocity versus inhibitor concentration, read-out: IC50): ~100 µM; IC50 (read-out: IC50 for MshC activity in an vitro enzyme assay): 100 µM
CN(CCCNC(=O)c1ccc2c(c1)N(Cc1cccc(Cl)c1)C(=O)c1ccccc1[S+]2[O-])C1CCCCC1 (centres unmarked) [Inhibitor 1938]	–	measurable inhibition	Significant inhibition	inhibition of MshC in words, Z is a benzyl moiety bearing one or more halogens: Measurable inhibition; IC50 (IC50, μM): 102 ± 4 µM
O=C(NCC1CCN(Cc2ccccc2)CC1)c1ccc2c(c1)N(Cc1cccc(Cl)c1)C(=O)c1ccccc1S2(=O)=O [Inhibitor 83-80]	> 3000 µM	–	–	–
O=C(NCCCSC1CCCCC1)c1ccc2c(c1)N(Cc1ccccc1)C(=O)c1ccccc1[S+]2[O-] (centres unmarked) [Inhibitor 83-12]	> 3000 µM	–	–	inhibition of MshC in words, compounds lacking the basic amino group or with groups in excess of 10 carbons on the remote amino residue: little or no inhibition
O=C(NCCN1CCN(Cc2ccccc2)CC1)c1ccc2c(c1)N(Cc1ccccc1F)C(=O)c1ccccc1S2(=O)=O [Inhibitor 83-42]	> 3000 µM	–	–	inhibition of MshC in words, compounds lacking the basic amino group or with groups in excess of 10 carbons on the remote amino residue: little or no inhibition

SMILES	IC50 (IC50)	inhibition of MshC in words, 1,3-diaminopropyl residue with remote amino residue capable of protonation	inhibition of MshC in words, compounds grouped by X (X=S, X=SO, X=SO2)	further results
O=C(NCCCN1CCCC1)c1ccc2c(c1)N(Cc1cccc(Cl)c1)C(=O)c1ccccc1S2(=O)=O [Inhibitor 83-78]	~500 µM	measurable inhibition	Significant inhibition	inhibition of MshC in words, Z is a benzyl moiety bearing one or more halogens: Measurable inhibition
O=C(NCCCN1CCCC1)c1ccc2c(c1)N(Cc1cccc(Cl)c1)C(=O)c1ccccc1S2 [Inhibitor 1779]	–	measurable inhibition	Significant inhibition	inhibition of MshC in words, Z is a benzyl moiety bearing one or more halogens: Measurable inhibition; IC50 (IC50, μM): 135 ± 30 µM
Cc1ccc(CN2C(=O)c3ccccc3Sc3ccc(C(=O)NCCCN4CC(C)CC(C)C4)cc32)cc1 (centres unmarked) [Inhibitor 1672]	–	–	–	IC50 (IC50, μM): > 3000 µM
CCN1C(=O)c2ccccc2[S+]([O-])c2ccc(C(=O)NCCCN3CCOCC3)cc21 (centres unmarked) [Inhibitor 83-13]	> 3000 µM	–	–	–
CN(CCCNC(=O)c1ccc2c(c1)N(Cc1ccccc1)C(=O)c1ccccc1[S+]2[O-])C1CCCCC1 (centres unmarked) [Inhibitor 83-11]	400 ± 100 µM	measurable inhibition	Significant inhibition	–
O=C(NCCCN1CCC(Cc2ccccc2)CC1)c1ccc2c(c1)N(Cc1cccc(Cl)c1)C(=O)c1ccccc1S2(=O)=O [Inhibitor 1949]	–	–	–	inhibition of MshC in words, compounds lacking the basic amino group or with groups in excess of 10 carbons on the remote amino residue: little or no inhibition; IC50 (IC50, μM): > 3000 µM
O=C(NCCCSC1CCCCC1)c1ccc2c(c1)N(Cc1ccccc1F)C(=O)c1ccccc1[S+]2[O-] (centres unmarked) [Inhibitor 83-04]	> 3000 µM	–	–	–
CC1CCCN(CCCNC(=O)c2ccc3c(c2)N(Cc2ccc(F)cc2)C(=O)c2ccccc2[S+]3[O-])C1 (centres unmarked) [Inhibitor 1051]	–	measurable inhibition	Significant inhibition	inhibition of MshC in words, Z is a benzyl moiety bearing one or more halogens: Measurable inhibition; IC50 (IC50, μM): 710 ± 20 µM
O=C(NCCCSC1CCCCC1)c1ccc2c(c1)N(Cc1cccc(Cl)c1)C(=O)c1ccccc1S2(=O)=O [Inhibitor 1964]	–	–	–	inhibition of MshC in words, compounds lacking the basic amino group or with groups in excess of 10 carbons on the remote amino residue: little or no inhibition; IC50 (IC50, μM): > 3000 µM
O=C(NCCCN1CCN(Cc2ccccc2)CC1)c1ccc2c(c1)N(Cc1ccccc1)C(=O)c1ccccc1S2(=O)=O [Inhibitor 83-52]	2500 ± 1200 µM	–	–	inhibition of MshC in words, compounds lacking the basic amino group or with groups in excess of 10 carbons on the remote amino residue: little or no inhibition
CCN1C(=O)c2ccccc2[S+]([O-])c2ccc(C(=O)NCCCN3CCN(C)CC3)cc21 (centres unmarked) [Inhibitor 83-14]	> 3000 µM	–	–	–
CCC1CCCCN1CCCNC(=O)c1ccc2c(c1)N(Cc1cccc(Cl)c1)C(=O)c1ccccc1S2(=O)=O (centres unmarked) [Inhibitor 1954]	–	measurable inhibition	Significant inhibition	inhibition of MshC in words, Z is a benzyl moiety bearing one or more halogens: Measurable inhibition; IC50 (IC50, μM): 1100 ± 200 µM
CC(C)CN(CCCNC(=O)c1ccc2c(c1)N(Cc1cccc(Cl)c1)C(=O)c1ccccc1[S+]2[O-])CC(C)C (centres unmarked) [Inhibitor 83-67]	~3000 µM	–	–	–
O=C(NCCCN1CCN(c2cccc(Cl)c2)CC1)c1ccc2c(c1)N(Cc1ccc(Cl)cc1)C(=O)c1ccccc1S2(=O)=O [Inhibitor 83-26]	> 3000 µM	–	–	inhibition of MshC in words, compounds lacking the basic amino group or with groups in excess of 10 carbons on the remote amino residue: little or no inhibition
O=C(NCCCN1CCCC1)c1ccc2c(c1)N(Cc1ccc(Cl)cc1)C(=O)c1ccccc1S2(=O)=O [Inhibitor 83-28]	250 ± 100 µM	measurable inhibition	–	inhibition of MshC in words, Z is a benzyl moiety bearing one or more halogens: Measurable inhibition; inhibition of MshC in words, compounds grouped by X: Significant inhibition
CC(C)CN(CCCNC(=O)c1ccc2c(c1)N(Cc1cccc(Cl)c1)C(=O)c1ccccc1S2(=O)=O)CC(C)C [Inhibitor 83-81]	> 3000 µM	–	–	–
